Measured values as given in ChEMBL document CHEMBL1201862, “PubChem BioAssay data set” (2004).
Values belong to the molecule of their own block, whether it stands above or below them. The source made the active and inactive calls.

Assays:
[1] = growth suppression of beta-catenin-knockout colon cells, dose response, cell-based, HCT116, human colon tumor (AID 1045); assay type: functional;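 further: HCT116 colon tumor cells with beta catenin knocked out; cells exposed to compound for 60 hours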
[2] = growth suppression of PTEN-null colon cells, dose response, cell-based, HCT116 PTEN knockout (AID 1047); assay type: functional;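 further: HCT116 colon tumor cells with PTEN knocked out; cells exposed to compound for 60 hours before readout; potency for loss of cell viability measured by luminescence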
[3] = HEp-2 cell cytotoxicity, dose response, cytotoxicity control for RSV inhibitor project, HTS (AID 2410); assay type: functional; conditions: human respiratory syncytial virus
[4] = target: T1, Corticotropin-releasing factor receptor 2/Corticotropin-releasing factor-binding protein (Homo sapiens, UniProt P24387+Q13324); assay: Dose Response confirmation of uHTS hits for small molecule antagonists of the CRF-binding protein and CRF-R2 receptor complex.; assay type: functional; conditions: read-out: IC50_Mean
T1 sequence (Q13324 whole entry): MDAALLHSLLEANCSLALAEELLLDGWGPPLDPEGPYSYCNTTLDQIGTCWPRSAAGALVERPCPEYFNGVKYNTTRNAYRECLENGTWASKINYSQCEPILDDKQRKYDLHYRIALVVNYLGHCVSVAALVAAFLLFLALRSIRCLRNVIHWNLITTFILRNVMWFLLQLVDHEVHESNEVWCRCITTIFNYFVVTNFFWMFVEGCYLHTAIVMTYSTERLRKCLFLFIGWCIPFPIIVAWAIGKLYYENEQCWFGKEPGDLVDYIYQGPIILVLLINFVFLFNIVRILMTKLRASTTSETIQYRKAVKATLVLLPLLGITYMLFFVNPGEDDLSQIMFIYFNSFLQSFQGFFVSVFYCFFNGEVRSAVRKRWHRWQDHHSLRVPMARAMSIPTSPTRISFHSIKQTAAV
T1 sequence (P24387 whole entry): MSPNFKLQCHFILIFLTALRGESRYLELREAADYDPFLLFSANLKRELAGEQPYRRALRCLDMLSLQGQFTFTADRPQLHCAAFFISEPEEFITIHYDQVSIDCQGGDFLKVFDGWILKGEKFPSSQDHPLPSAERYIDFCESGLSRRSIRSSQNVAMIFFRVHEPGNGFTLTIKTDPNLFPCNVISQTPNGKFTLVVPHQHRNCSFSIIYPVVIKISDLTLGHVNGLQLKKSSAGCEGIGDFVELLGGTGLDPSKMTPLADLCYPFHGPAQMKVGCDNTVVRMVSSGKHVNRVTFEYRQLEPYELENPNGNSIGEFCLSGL

[5] = target: T1, Corticotropin-releasing factor receptor 2/Corticotropin-releasing factor-binding protein; assay: activators of CRF receptor 2 with binding protein – uHTS hits, confirmation (AID 602473); assay type: functional; conditions: read-out: EC50_Mean
[6] = NIH-3T3 fibroblast cytotoxicity, dose response, cytotoxicity control, cell-based, fluorescence, Alamar Blue, secondary assay (AID 2327); assay type: functional;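 further: NIH-3T3 mouse fibroblasts cultured with fluconazole at 8 µg/mL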
[7] = C. albicans growth with fluconazole, confirmation, fluorescence, retest (AID 2467); assay type: functional, cell-based
[8] = inhibitors of intracellular T. cruzi replication, confirmation, NIH3T3 host cells, beta-gal luminescence (AID 2044); assay type: functional, cell-based;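 further: intracellular parasites grown in NIH/3T3 mouse fibroblasts as host cells; luminescent beta-galactosidase reporter signal from transgenic T. cruzi replicating inside host cells; inhibitors lower the luminescence signal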
[9] = cytotoxicity toward NIH3T3 fibroblasts, dose response, counter-screen, cell-based, ATP luminescence, mouse fibroblasts (AID 2010); assay type: functional;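 further: cells exposed to compound for about 90 hours before reading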
[10] = system: INS1; assay: beta cell apoptosis inhibitors, cytokine rescue, dose response, luminescence, retest (AID 449756); assay type: functional, cell-based; conditions: Rattus norvegicus;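 further: cell death triggered by IL-1 beta plus TNF-alpha plus IFN-gamma mixture; protective hits raise ATP signal compared with cytokine alone wells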
[11] = target: Cytochrome P450 2D6 (Homo sapiens, UniProt P10635);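 further: CYP2D6 member of a cytochrome P450 panel assay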
Chain of Cytochrome P450 2D6 (P10635 whole entry): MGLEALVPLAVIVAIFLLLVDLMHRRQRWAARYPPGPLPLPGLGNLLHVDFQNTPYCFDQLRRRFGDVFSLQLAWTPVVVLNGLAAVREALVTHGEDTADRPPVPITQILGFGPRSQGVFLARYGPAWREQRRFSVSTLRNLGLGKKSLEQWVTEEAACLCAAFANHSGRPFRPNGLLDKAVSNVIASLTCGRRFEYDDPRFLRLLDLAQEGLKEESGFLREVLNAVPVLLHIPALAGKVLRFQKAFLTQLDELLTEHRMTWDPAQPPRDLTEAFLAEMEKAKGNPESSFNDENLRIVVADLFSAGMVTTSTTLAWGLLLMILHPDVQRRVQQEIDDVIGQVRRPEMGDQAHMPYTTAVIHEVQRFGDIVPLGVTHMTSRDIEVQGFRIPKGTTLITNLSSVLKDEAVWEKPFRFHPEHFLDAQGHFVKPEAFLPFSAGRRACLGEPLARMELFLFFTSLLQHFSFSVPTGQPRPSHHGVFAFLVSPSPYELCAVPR

[12] = target: T2, Cytochrome P450 1A2 (Homo sapiens, UniProt P05177);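 further: PubChem cytochrome P450 panel assay, CYP1A2 panel member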
T2 sequence (P05177 whole entry): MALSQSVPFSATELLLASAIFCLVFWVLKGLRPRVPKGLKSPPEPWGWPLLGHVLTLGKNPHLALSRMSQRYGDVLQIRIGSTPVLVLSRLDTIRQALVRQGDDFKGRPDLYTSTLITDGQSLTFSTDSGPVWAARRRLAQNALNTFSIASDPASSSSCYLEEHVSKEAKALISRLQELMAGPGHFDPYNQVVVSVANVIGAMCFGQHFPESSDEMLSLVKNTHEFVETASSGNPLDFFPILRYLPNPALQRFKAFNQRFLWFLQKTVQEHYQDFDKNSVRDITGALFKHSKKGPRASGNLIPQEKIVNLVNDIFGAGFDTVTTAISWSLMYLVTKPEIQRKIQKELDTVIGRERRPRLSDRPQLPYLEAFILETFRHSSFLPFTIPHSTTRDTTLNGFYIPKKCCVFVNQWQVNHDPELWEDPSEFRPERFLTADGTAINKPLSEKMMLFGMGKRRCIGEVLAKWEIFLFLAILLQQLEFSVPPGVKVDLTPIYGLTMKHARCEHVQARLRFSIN

[13] = target: Cytochrome P450 2C19 (Homo sapiens, UniProt P33261); assay: Cytochrome panel assay with activity outcomes. Panel member name: p450-cyp2c19 Compounds with AC50 equal or less than 10 uM are considered active; assay type: functional
Chain of Cytochrome P450 2C19 (P33261 whole entry): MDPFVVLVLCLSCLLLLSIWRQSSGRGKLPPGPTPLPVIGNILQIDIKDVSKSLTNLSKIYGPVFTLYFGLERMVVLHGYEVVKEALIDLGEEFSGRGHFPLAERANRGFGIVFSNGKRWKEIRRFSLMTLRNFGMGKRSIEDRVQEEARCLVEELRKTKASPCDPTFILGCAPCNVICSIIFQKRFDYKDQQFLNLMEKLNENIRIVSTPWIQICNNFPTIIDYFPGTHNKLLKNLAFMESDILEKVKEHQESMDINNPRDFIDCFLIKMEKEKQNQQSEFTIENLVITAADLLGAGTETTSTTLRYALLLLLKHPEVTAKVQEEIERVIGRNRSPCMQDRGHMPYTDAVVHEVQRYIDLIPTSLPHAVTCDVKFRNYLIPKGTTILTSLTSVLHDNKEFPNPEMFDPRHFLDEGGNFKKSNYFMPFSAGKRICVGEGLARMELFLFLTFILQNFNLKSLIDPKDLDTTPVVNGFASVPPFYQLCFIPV

[14] = target: Cytochrome P450 3A4 (Homo sapiens, UniProt P08684);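 further: CYP3A4 tested as one member of a cytochrome P450 panel screen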
Chain of Cytochrome P450 3A4 (P08684 whole entry): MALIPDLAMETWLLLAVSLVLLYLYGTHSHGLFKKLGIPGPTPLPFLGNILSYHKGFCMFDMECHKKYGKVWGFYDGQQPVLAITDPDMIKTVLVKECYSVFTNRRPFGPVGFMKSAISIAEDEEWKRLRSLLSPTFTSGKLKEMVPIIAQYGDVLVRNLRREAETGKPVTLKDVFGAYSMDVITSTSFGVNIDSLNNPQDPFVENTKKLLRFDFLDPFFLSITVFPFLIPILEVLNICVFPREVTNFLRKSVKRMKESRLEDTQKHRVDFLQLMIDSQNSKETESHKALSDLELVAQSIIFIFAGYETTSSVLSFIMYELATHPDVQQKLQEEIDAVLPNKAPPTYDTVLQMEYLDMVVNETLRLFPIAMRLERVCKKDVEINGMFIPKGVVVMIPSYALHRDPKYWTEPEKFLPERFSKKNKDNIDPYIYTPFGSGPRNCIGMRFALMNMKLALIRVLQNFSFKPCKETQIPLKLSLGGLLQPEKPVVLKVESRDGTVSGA

Structure (SMILES): Cc1ccc2[nH]c(SCC(=O)Nc3cc([N+](=O)[O-])ccc3F)nc2c1
EC50 [1]: 20.6 µM (active)
EC50 [2]: 14 µM (active)

Structure (SMILES): O=C(NCc1nnc(SCC(=O)N2CCCc3ccccc32)n1-c1ccccc1)c1cccc2ccccc12
CC50 [3]: > 50 µM (active)

IC50 [4]: > 47.1 µM (inactive)
EC50 [5]: > 53 µM (inactive)
Structure (SMILES): CCN(C(=O)CSc1cc(C)c2ccc(OC)cc2n1)C1CCS(=O)(=O)C1 (stereo unspecified)

Structure (SMILES): Cc1onc(-c2ccccc2Cl)c1C(=O)Nc1cccc2cccnc12
CC50 [3]: 3.16 µM (active)

Structure (SMILES): Clc1ccc(OCCn2ccnc2)c2ccccc12
EC50 [6]: > 150 µM (inactive)
EC50 [7]: 3.78 µM (active)
EC50 [8]: 3.91 µM (active)
EC50 [9]: > 60 µM (not active)

Structure (SMILES): CC(C)CC(=O)NCc1ccc2[nH]c3c(c2c1)CCCC3
EC50 [6]: > 160 µM (inactive)
EC50 [7]: > 38 µM (not active)

Structure (SMILES): O=C(C1CCC1)N1CCc2cc(S(=O)(=O)Nc3ccc4c(c3)OCCO4)ccc21
AC50 [10]: 5.88 µM (active)

Structure (SMILES): O=C(c1ccco1)N1CCN(c2ncnc3c2cnn3-c2ccccc2)CC1
CC50 [3]: 38.5 µM (active)

Structure (SMILES): CCc1ccc(C(=O)NNc2ccc(F)cc2)cc1
EC50 [6]: 12.2 µM (active)
EC50 [7]: > 38 µM (not active)

AC50 [11]: 25.1 µM (inconclusive)
AC50 [12]: 15.8 µM (inconclusive)
Structure (SMILES): Cn1c(CC(=O)Nc2ccc(Cl)c(Cl)c2)nnc1SCC(=O)N1CCN(c2ccccc2)CC1

IC50 [4]: > 47.1 µM (inactive)
EC50 [5]: > 53 µM (inactive)
Structure (SMILES): C/C(=C\c1ccccc1)CN1CCC(C(=O)N2CCCCC2)CC1

Structure (SMILES): O=C(c1ccc(COc2c(F)c(F)cc(F)c2F)o1)N1CCN(c2ccc(Cl)cc2)CC1
EC50 [1]: 11.7 µM (active)
EC50 [2]: 21.5 µM (active)

Structure (SMILES): O=C(NNc1ccccc1)C(CCO)C(=O)NNc1ccccc1
EC50 [6]: 19.6 µM (active)
EC50 [7]: > 38 µM (not active)

Structure (SMILES): CCCC(=O)NC(=S)NNC(=O)c1ccc([N+](=O)[O-])cc1
EC50 [6]: > 160 µM (inactive)
EC50 [7]: 10.1 µM (active)

Structure (SMILES): COC(=O)c1ccc2c(=O)n(Cc3ccco3)c(SCC(=O)Nc3ccccc3Cl)nc2c1
EC50 [1]: 44.3 µM (active)
EC50 [2]: 37.5 µM (active)

Structure (SMILES): COc1ccc(OC)c(NC(=O)c2cc(-c3cc(Cl)ccc3O)[nH]n2)c1
EC50 [1]: 39.2 µM (active)
EC50 [2]: 36.7 µM (active)

Structure (SMILES): Cc1cc(C)c(S(=O)(=O)Nc2nnc(C3CCCCC3)s2)c(C)c1
EC50 [6]: > 160 µM (inactive)
EC50 [7]: 1.93 µM (active)

Structure (SMILES): N#Cc1cnn2c(-c3cccc(C(F)(F)F)c3)ccnc12
CC50 [3]: 47 µM (active)

Structure (SMILES): O=c1c2c3c(sc2n(CCN2CCCCC2)c(=O)n1Cc1ccco1)CCCCC3
EC50 [8]: 2.76 µM (active)
AC50 [10]: 17.9 µM (active)
EC50 [9]: > 30 µM (not active)

IC50 [4]: > 47.1 µM (inactive)
EC50 [5]: > 53 µM (inactive)
Structure (SMILES): O=c1c2ccccc2nc2n1C(CBr)CN2 (stereo unspecified)

AC50 [13]: inconclusive
AC50 [12]: 0.00631 µM (inconclusive)
AC50 [14]: 17.8 µM (inconclusive)
Structure (SMILES): COc1ccccc1NC(=O)CCc1c(C)nc(O)c(C#N)c1C
